Assay results published in paper PMC4864329, “In vitro and in vivo efficacy, toxicity, bio-distribution and resistance selection of a novel antibacterial drug candidate” (Scientific Reports, 2016).
Several values for one entry are separate records, joined by “and”; a condition that tells them apart may be missing. Equal values may be shown once. Read-outs that look alike come from different tables or passages of the source.

Assays:
[1] = tested on: Klebsiella pneumoniae clinical isolates; type: cell-based
Protocol: Minimum inhibitory concentrations (MICs) of SET-M33L were determined against 76 clinical isolates of Pseudomonas aeruginosa and 73 clinical isolates of Klebsiella pneumoniae. The isolates were selected on the basis of their resistance phenotypes and major antibiotic resistance determinants, including resistance to colistin and carriage of carbapenemase-encoding genes (Table 1 and supplemental Tables S1 and S2).
MIC values were determined against a large collection of clinical isolates. Most isolates were collected during routine susceptibility testing procedures at the Clinical Microbiology Unit of Careggi University Hospital in Florence, while specific isolates were selected according to their phenotype or genotype (e.g. carriage of carbapenemase-encoding genes, inclusion in epidemic bacterial clones, resistance to colistin) from a collection of isolates already available at Department of Medical Biotechnologies, University of Siena. Detailed features of each strain, including relevant resistance phenotypes and genotypes were reported in supplemental Tables S1 and S2. MICs were determined in triplicate using a standard microdilution assay according to the guidelines of the Clinical and Laboratory Standards Institute[34]. SET-M33L was assayed using concentrations in the range 0.09–11.2 μM (0.5–64 μg/mL); testing was performed using a bacterial inoculum of 5 × 10^4 CFU/well prepared in cation-supplemented Mueller-Hinton broth (MHB) (Becton Dickinson, Franklin Lakes, NJ, USA) in a final volume of 100 μl. Results were recorded after 18–20 h of incubation at 35 °C.

[2] = tested on: K. pneumoniae strain KKBO-1; experiment: In vitro selection of resistant mutants on peptide-containing MHB agarose; type: cell-based, Klebsiella pneumoniae; settings: KKBO-1, same experimental conditions
Protocol: (§1) Tests were performed by plating cells on SET-M33L- or colistin-containing MHB.
Selection was performed on an MHB-based selection medium containing 1% low electro-osmosis agarose as solidifying agent and 11.2 μM SET-M33L (64 μg/mL). Agarose was preferred to agar as solidifying agent due to the observed loss of antimicrobial activity of SET-M33L in selection media solidified with the latter, possibly due to the charged nature of agar. Klebsiella pneumoniae KKBO-1 strain was grown in MHB at 37 °C to OD600 0.35 and up to 5 × 10^9 colony forming units (CFU) were spread on Petri dishes containing 20 ml of the selection medium. Plates were incubated for 16–18 h at 37 °C. Colistin-containing selection medium (equimolar concentration with respect to SET-M33L) was used as control for the selection of colistin-resistant mutants. Experiments were performed in triplicate.

[3] = tested on: K. pneumoniae strain KKBO-1; type: cell-based, Klebsiella pneumoniae; settings: K. pneumoniae KKBO-1
Protocol: as §1

[4] = tested on: BALB/c mice; experiment: Acute toxicity in mice, single i.v. dose; type: in vivo, mouse; settings: for mortality: single i.v. dose 10 mg/Kg
Protocol: As preliminary toxicity evaluation we first compared the acute toxicity of SET-M33L and SET-M33L-PEG with that of colistin. Animals (10 BALB/c mice/group) were injected i.v. with different amounts of SET-M33L, SET-M33L-PEG or colistin, in single dose, in the range 5–40 mg/kg (Fig. 4), and were monitored for 4 days after inoculation of the peptide. […] At 40 mg/Kg SET-M33L and SET-M33L-PEG produced similar toxicity profiles with strong signs of toxicity and 90–100% mortality after 96 hours. Colistin produced strong signs of toxicity already at 10 mg/Kg: 50% mortality immediately after inoculation and 70% mortality after 24 hours. Colistin induced sudden death in 100% of mice at 20 and 40 mg/Kg.
Mice were treated by a single i.v. administration of different amounts (40, 20, 10, 5 mg/Kg) of SET-M33L, SET-M33L-PEG or colistin sulfate (Sigma-Aldrich, C4461). Signs of toxicity were checked four times a day by visual inspection. A toxicity score was assigned for the following signs: wiry coat and poor motility = mild signs; very wiry coat, abundant lachrymation and poor motility even under stimulation = manifest signs. Animals were monitored for 4 days after inoculation of the peptide. Mice were weighed every day from arrival to the last day of the experiment. Moribund animals were killed humanely to avoid unnecessary distress.

colistin sulfate
16 µg/mL: MIC ([1]; isolate SI_K31, β/I, ESC, FQ, AG, COL, ESBL)
≤ 0.5 µg/mL: MIC ([1]; isolate SI_K2, CARB, ESC, FQ, AG, blaCTX-M) | MIC ([1]; isolate SI_K8, CARB, β/I, ESC, FQ, AG, blaKPC) | MIC ([1]; isolate SI_K11, CARB, β/I, ESC, FQ, AG, blaKPC) | MIC ([1]; isolate SI_K12, phenotype none) | MIC ([1]; isolate SI_K13, β/I, ESC, FQ, AG, ESBL) | MIC ([1]; isolate SI_K14, phenotype none) | MIC ([1]; isolate SI_K15, phenotype none) | MIC ([1]; isolate SI_K16, phenotype none) | MIC ([1]; isolate SI_K18, phenotype none) | MIC ([1]; isolate SI_K19, ESC, ESBL) | MIC ([1]; isolate SI_K20, phenotype none) | MIC ([1]; isolate SI_K21, phenotype none) | MIC ([1]; isolate SI_K22, phenotype none) | MIC ([1]; isolate SI_K23, phenotype none) | MIC ([1]; isolate SI_K24, phenotype none) | MIC ([1]; isolate SI_K25, phenotype none) | MIC ([1]; isolate SI_K26, phenotype none) | MIC ([1]; isolate SI_K27, phenotype none) | MIC ([1]; isolate SI_K28, β/I, ESC, FQ, AG, ESBL) | MIC ([1]; isolate SI_K30, phenotype none) | MIC ([1]; isolate SI_K32, phenotype none) | MIC ([1]; isolate SI_K33, phenotype none) | MIC ([1]; isolate SI_K34, phenotype none) | MIC ([1]; isolate SI_K35, CARB, β/I, ESC, FQ, AG, blaKPC) | MIC ([1]; isolate SI_K37, phenotype none) | MIC ([1]; isolate SI_K38, phenotype none) | MIC ([1]; isolate SI_K39, phenotype none)
> 32 µg/mL: MIC ([1]; isolate SI_K10, CARB, β/I, ESC, FQ, COL, blaKPC) | MIC ([1]; isolate SI_K17, CARB, β/I, ESC, FQ, AG, COL, blaKPC) | MIC ([1]; isolate SI_K36, CARB, β/I, ESC, FQ, AG, COL, blaKPC)
70%: mortality ([4]; after 24 hours)
≤ 0.4 μM and ≤ 0.5 μg/mL: MIC ([1]; isolate SI_K44, phenotype none)
at least 500: times more prone to select resistant mutants than SET-M33L [2]
32 µg/mL: MIC ([1]; isolate SI_K1, CARB, β/I, ESC, FQ, AG, COL, blaNDM)
0.15 µM: MIC [3]
> 32 μg/mL and > 24 μM: MIC ([1]; isolate SI_K40, CARB, β/I, ESC, FQ, AG, COL, blaKPC) | MIC ([1]; isolate SI_K72, CARB, β/I, ESC, FQ, AG, COL, blaNDM)
≤ 0.5 μg/mL and ≤ 0.4 μM: MIC ([1]; isolate SI_K41, β/I, ESC, FQ, AG, ESBL) | MIC ([1]; isolate SI_K42, phenotype none) | MIC ([1]; isolate SI_K43, phenotype none) | MIC ([1]; isolate SI_K45, FQ) | MIC ([1]; isolate SI_K46, β/I) | MIC ([1]; isolate SI_K47, phenotype none) | MIC ([1]; isolate SI_K48, phenotype none) | MIC ([1]; isolate SI_K49, phenotype none) | MIC ([1]; isolate SI_K50, phenotype none) | MIC ([1]; isolate SI_K51, phenotype none) | MIC ([1]; isolate SI_K52, phenotype none) | MIC ([1]; isolate SI_K53, β/I, ESC, FQ, ESBL) | MIC ([1]; isolate SI_K54, phenotype none) | MIC ([1]; isolate SI_K55, β/I, ESC, FQ, AG, ESBL) | MIC ([1]; isolate SI_K56, phenotype none) | MIC ([1]; isolate SI_K57, β/I, FQ) | MIC ([1]; isolate SI_K58, phenotype none) | MIC ([1]; isolate SI_K59, phenotype none) | MIC ([1]; isolate SI_K60, phenotype none) | MIC ([1]; isolate SI_K61, CARB, β/I, ESC, FQ) | MIC ([1]; isolate SI_K62, CARB, β/I, ESC, FQ, AG, ESBL) | MIC ([1]; isolate SI_K63, β/I, ESC, FQ, AG, ESBL) | MIC ([1]; isolate SI_K64, phenotype none) | MIC ([1]; isolate SI_K65, phenotype none) | MIC ([1]; isolate SI_K66, β/I, ESC, FQ, AG, ESBL) | MIC ([1]; isolate SI_K67, β/I, ESC, FQ, AG, ESBL) | MIC ([1]; isolate SI_K68, phenotype none) | MIC ([1]; isolate SI_K69, β/I, ESC, FQ, AG, ESBL) | MIC ([1]; isolate SI_K70, β/I, ESC, FQ) | MIC ([1]; isolate SI_K71, CARB, β/I, ESC, FQ, blaKPC) | MIC ([1]; isolate SI_K73, CARB, ESC, FQ, AG, blaCTX-M)
100%: sudden death ([4]; single i.v. dose 20 mg/Kg) | sudden death ([4]; single i.v. dose 40 mg/Kg)
2 µg/mL: MIC ([1]; isolate SI_K9, CARB, β/I, ESC, FQ, AG, blaKPC)
0.5 µg/mL: MIC ([1]; isolate SI_K3, CARB, β/I, ESC, AG, blaVIM) | MIC ([1]; isolate SI_K4, CARB, β/I, ESC, FQ, blaOXA-48) | MIC ([1]; isolate SI_K5, CARB, β/I, ESC, FQ, blaOXA-48) | MIC ([1]; isolate SI_K6, CARB, β/I, ESC, FQ, AG, blaKPC) | MIC ([1]; isolate SI_K7, CARB, β/I, ESC, FQ, blaKPC) | MIC ([1]; isolate SI_K29, ESC, AG, blaCTX-M)
50%: mortality ([4]; immediately after inoculation)
